# Reference: patent US5278308A, “Iodine derivatives of tetrabenazine” (The Trustees of The University of Pennsylvania, priority 1992, dated 1994)
# How the values were obtained:
# [1] = system: monoamine transporter of chromaffin granules and CNS synaptic vesicles; conditions: cited from earlier work
# [2] = normal and lesioned brain sections; cited from earlier work
# [3] = Regional brain distribution in rats (dissection, iv injection); assay type: in vivo; conditions: rat, listed as I-TBZ peak B
# Experimental: Regional brain distribution of [^123 I]I-TBZ (with either a racemic mixture, peak A or B) in rats was obtained after an iv injection. By dissecting, weighing and counting samples from different brain regions (cortex, striatum, hippocampus and cerebellum), % dose/gram of the samples was calculated by comparing the sample counts with the counts of the diluted initial dose. The ratio of uptake in each region was obtained by dividing % dose/gram of each region with that of the cerebellum. The effect of tetrahydrobenazine on the uptake of peak A or peak B was investigated by pretreating the rats with the TBZ 3 mg/rat at 3 min before iv injection of [^123 I]I-TBZ. At 20 min. post injection the rats were dissected and the regional brain dissection was carried out as above.
# rat plasma [4] = assay: Protein binding by TCA (10% rat plasma, 30 min, 37° C.); assay type: in vitro ADME; conditions: TCA precipitation
# Experimental: One ml of 10% rat plasma was mixed with [^123 I]I-TBZ in a test tube and the mixture was incubated for 30 minutes at 37° C. To the mixture 0.4 mL of 10% trichloroacetic acid (TCA) was added. The test tube was centrifuged for 10 min. (4,000 rpm), and the top aqueous layer was removed to another test tube for counting The precipitate was washed with water (0.5 mL×2). The combined water and top aqueous layer was counted. The residual precipitate was also counted. The protein binding was obtained by dividing counts in precipitate with counts in aqueous layers.
# rat plasma [5] = assay: Protein binding by Filter (50% rat plasma, Amicon micropartition system); assay type: in vitro ADME; conditions: 30 min, 37° C.
# Experimental: One mL of rat plasma (50%) was mixed with [^123 I]I-TBZ in a test tube. After 30 min incubation at 37° C., 50 uL ×3 of liquid was removed as initial dose standard (I.D.); the rest was passed through an Amicon micropartition system (Amicon division, W. R. Grace, Danvers, Mass.) by centrifuging for 20 minutes (2,000 rpm) at 0° C. Four samples (50 uL each) were removed from the filtered solution and counted. The protein binding (% bound) was calculated by using the unit counts in filtrate divided by unit counts in ID.
# [6] = Biodistribution in rats (iv injection); assay type: in vivo; conditions: rat, iv
# Experimental: While under ether anesthesia, each rat was injected in the femoral vein with 0.2 mL saline solution containing [^123 I]I-TBZ (1-5uCi) either racemic mixture, peak-A or peak-B. The rats were sacrificed at various time points postinjection by cardiac excision. The tissues were weighed and the radioactivity was measured with a Canberra gamma counter (Model 5000). The percent dose per organ was calculated by a comparison of the tissue counts to suitably diluted aliquots of the injected material. Total activities of blood and muscle were calculated assuming that they were 7% and 40% of total body weight, respectively Results are presented in Tables 3, 4A and 4B.
compound,measurement,setting,value
"COc1cc2c(cc1OC)C1CC(O)C(CC(C)C)CN1CC2 (stereo not shown) [[^3 H]dihydro-TBZ, 2-hydroxy-3-(2-methylpropyl)-9,10-dimethoxy-1,3,4,6,7,11b-hexahydro-2H -benzo[a]quinolizine]",binding affinity for the transporter (in words),[1],does not affect the binding affinity
same,Kd,"[1]; membranes of chromaffin granules and brain tissue samples, in vitro, read-out: binding affinity Kd",2 to 9 nM
same,Regional distribution of binding sites in brain sections (in words),[2],corresponded to the monoamine cell bodies and nerve endings
"COc1cc2c(cc1OC)C1CC(O)(C=C[123I])C(CC(C)C)CN1CC2 (single isomer, unassigned) [Peak B]","Regional brain uptake, Rem",[3]; 5 min,0.465 ± 0.070 % Dose/g
same,"Regional brain uptake, cerebellum",[3]; 5 min,0.449 ± 0.067 % Dose/g
same,"Regional brain uptake, cortex",[3]; 5 min,0.514 ± 0.066 % Dose/g
same,"Regional brain uptake, hippocampus",[3]; 5 min,0.458 ± 0.074 % Dose/g
same,"Regional brain uptake, striatum",[3]; 5 min,0.482 ± 0.066 % Dose/g
same,Str./Cb (% dose/gram ratio),[3]; 5 min,1.07
same,"Regional brain uptake, Rem",[3]; 20 min,0.172 ± 0.011 % Dose/g
same,"Regional brain uptake, cerebellum",[3]; 20 min,0.162 ± 0.017 % Dose/g
same,"Regional brain uptake, cortex",[3]; 20 min,0.183 ± 0.012 % Dose/g
same,"Regional brain uptake, hippocampus",[3]; 20 min,0.189 ± 0.012 % Dose/g
same,"Regional brain uptake, striatum",[3]; 20 min,0.189 ± 0.001 % Dose/g
same,Str./Cb (% dose/gram ratio),[3]; 20 min,1.17
same,"Regional brain uptake, Rem",[3]; 60 min,0.057 ± 0.006 % Dose/g
same,"Regional brain uptake, cerebellum",[3]; 60 min,0.055 ± 0.005 % Dose/g
same,"Regional brain uptake, cortex",[3]; 60 min,0.060 ± 0.007 % Dose/g
same,"Regional brain uptake, hippocampus",[3]; 60 min,0.058 ± 0.009 % Dose/g
same,"Regional brain uptake, striatum",[3]; 60 min,0.062 ± 0.002 % Dose/g
same,Str./Cb (% dose/gram ratio),[3]; 60 min,1.13
same,"Regional brain uptake, Rem",[3]; 120 min,0.027 ± 0.004 % Dose/g
same,"Regional brain uptake, cerebellum",[3]; 120 min,0.027 ± 0.005 % Dose/g
same,"Regional brain uptake, cortex",[3]; 120 min,0.028 ± 0.005 % Dose/g
same,"Regional brain uptake, hippocampus",[3]; 120 min,0.027 ± 0.004 % Dose/g
same,"Regional brain uptake, striatum",[3]; 120 min,0.027 ± 0.003 % Dose/g
same,Str./Cb (% dose/gram ratio),[3]; 120 min,1.00
same,"Protein binding, by TCA",rat plasma [4],40.8 ± 0.6 % bound
same,"Protein binding, by Filter",rat plasma [5],83.7 ± 0.8 % bound
same,Blood uptake (blood assumed 7% of body weight),[6]; 5 min,4.74 ± 0.36 % Dose/organ
same,Br/Bl (% dose/gram ratio),[6]; 5 min,1.54 ± 0.16
same,Brain uptake,[6]; 5 min,0.74 ± 0.07 % Dose/organ
same,Heart uptake,[6]; 5 min,0.63 ± 0.03 % Dose/organ
same,Kidney uptake,[6]; 5 min,2.18 ± 0.34 % Dose/organ
same,Liver uptake,[6]; 5 min,22.61 ± 1.85 % Dose/organ
same,Lung uptake,[6]; 5 min,2.02 ± 0.22 % Dose/organ
same,Muscle uptake (muscle assumed 40% of body weight),[6]; 5 min,21.12 ± 1.36 % Dose/organ
same,Skin uptake,[6]; 5 min,7.64 ± 3.09 % Dose/organ
same,Spleen uptake,[6]; 5 min,0.46 ± 0.03 % Dose/organ
same,Thyroid uptake,[6]; 5 min,0.07 ± 0.01 % Dose/organ
same,Blood uptake (blood assumed 7% of body weight),[6]; 20 min,2.76 ± 0.42 % Dose/organ
same,Br/Bl (% dose/gram ratio),[6]; 20 min,1.06 ± 0.22
same,Brain uptake,[6]; 20 min,0.27 ± 0.02 % Dose/organ
same,Heart uptake,[6]; 20 min,0.35 ± 0.02 % Dose/organ
same,Kidney uptake,[6]; 20 min,1.37 ± 0.11 % Dose/organ
same,Liver uptake,[6]; 20 min,17.25 ± 1.25 % Dose/organ
same,Lung uptake,[6]; 20 min,1.05 ± 0.04 % Dose/organ
same,Muscle uptake (muscle assumed 40% of body weight),[6]; 20 min,19.78 ± 1.90 % Dose/organ
same,Skin uptake,[6]; 20 min,8.37 ± 1.15 % Dose/organ
same,Spleen uptake,[6]; 20 min,0.28 ± 0.03 % Dose/organ
same,Thyroid uptake,[6]; 20 min,0.05 ± 0.01 % Dose/organ
same,Blood uptake (blood assumed 7% of body weight),[6]; 60 min,1.89 ± 0.13 % Dose/organ
same,Br/Bl (% dose/gram ratio),[6]; 60 min,0.47 ± 0.05
same,Brain uptake,[6]; 60 min,0.087 ± 0.01 % Dose/organ
same,Heart uptake,[6]; 60 min,0.16 ± 0.01 % Dose/organ
same,Kidney uptake,[6]; 60 min,0.70 ± 0.06 % Dose/organ
same,Liver uptake,[6]; 60 min,8.36 ± 1.01 % Dose/organ
same,Lung uptake,[6]; 60 min,0.46 ± 0.03 % Dose/organ
same,Muscle uptake (muscle assumed 40% of body weight),[6]; 60 min,11.80 ± 2.02 % Dose/organ
same,Skin uptake,[6]; 60 min,5.45 ± 0.64 % Dose/organ
same,Spleen uptake,[6]; 60 min,0.14 ± 0.03 % Dose/organ
same,Thyroid uptake,[6]; 60 min,0.13 ± 0.03 % Dose/organ
same,Blood uptake (blood assumed 7% of body weight),[6]; 120 min,1.89 ± 0.34 % Dose/organ
same,Br/Bl (% dose/gram ratio),[6]; 120 min,0.25 ± 0.03
same,Brain uptake,[6]; 120 min,0.042 ± 0.008 % Dose/organ
same,Heart uptake,[6]; 120 min,0.09 ± 0.02 % Dose/organ
same,Kidney uptake,[6]; 120 min,0.36 ± 0.09 % Dose/organ
same,Liver uptake,[6]; 120 min,4.35 ± 0.50 % Dose/organ
same,Lung uptake,[6]; 120 min,0.27 ± 0.08 % Dose/organ
same,Muscle uptake (muscle assumed 40% of body weight),[6]; 120 min,5.72 ± 1.20 % Dose/organ
same,Skin uptake,[6]; 120 min,4.80 ± 0.46 % Dose/organ
same,Spleen uptake,[6]; 120 min,0.06 ± 0.01 % Dose/organ
same,Thyroid uptake,[6]; 120 min,0.47 ± 0.14 % Dose/organ
